{
  "source": "paper PMC6688997",
  "about": "(Nature Communications, 2019)",
  "key": {"TRKB (NTRK2)": {"biological_target": "T1, TRKB (NTRK2) (Homo sapiens, UniProt Q16620)", "T1 construct": "purchased Carna Biosciences, Inc. (Kobe, Japan); assay run by the vendor", "T1 sequence (Q16620 32-822)": "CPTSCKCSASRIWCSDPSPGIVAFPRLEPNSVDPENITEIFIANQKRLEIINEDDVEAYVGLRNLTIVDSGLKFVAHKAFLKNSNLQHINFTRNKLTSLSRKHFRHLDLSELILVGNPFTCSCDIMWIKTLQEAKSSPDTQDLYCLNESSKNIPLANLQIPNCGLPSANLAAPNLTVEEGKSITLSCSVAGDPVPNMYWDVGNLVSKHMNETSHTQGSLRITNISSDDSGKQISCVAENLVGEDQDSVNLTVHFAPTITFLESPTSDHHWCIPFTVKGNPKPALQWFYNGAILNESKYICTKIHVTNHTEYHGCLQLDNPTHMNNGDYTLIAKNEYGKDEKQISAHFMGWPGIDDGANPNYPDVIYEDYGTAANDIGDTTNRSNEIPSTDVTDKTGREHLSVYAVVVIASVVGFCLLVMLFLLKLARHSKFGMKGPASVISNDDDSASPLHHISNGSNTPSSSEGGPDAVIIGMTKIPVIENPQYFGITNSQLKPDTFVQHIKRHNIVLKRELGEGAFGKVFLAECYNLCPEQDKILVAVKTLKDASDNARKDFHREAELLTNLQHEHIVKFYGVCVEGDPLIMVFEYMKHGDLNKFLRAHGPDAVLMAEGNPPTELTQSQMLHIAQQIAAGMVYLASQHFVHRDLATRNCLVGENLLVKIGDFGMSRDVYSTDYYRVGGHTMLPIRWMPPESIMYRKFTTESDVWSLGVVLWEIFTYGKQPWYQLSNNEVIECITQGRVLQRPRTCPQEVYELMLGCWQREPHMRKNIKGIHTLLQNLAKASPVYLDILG", "test": "Kinase assay, ATP Km", "type": "biochemical", "settings": "for IC50: ATP: Km"}, "AMPKα1/β1/γ1": {"biological_target": "AMPKα1/β1/γ1 (Homo sapiens, UniProt Q13131)", "sequence (Q13131 whole entry)": "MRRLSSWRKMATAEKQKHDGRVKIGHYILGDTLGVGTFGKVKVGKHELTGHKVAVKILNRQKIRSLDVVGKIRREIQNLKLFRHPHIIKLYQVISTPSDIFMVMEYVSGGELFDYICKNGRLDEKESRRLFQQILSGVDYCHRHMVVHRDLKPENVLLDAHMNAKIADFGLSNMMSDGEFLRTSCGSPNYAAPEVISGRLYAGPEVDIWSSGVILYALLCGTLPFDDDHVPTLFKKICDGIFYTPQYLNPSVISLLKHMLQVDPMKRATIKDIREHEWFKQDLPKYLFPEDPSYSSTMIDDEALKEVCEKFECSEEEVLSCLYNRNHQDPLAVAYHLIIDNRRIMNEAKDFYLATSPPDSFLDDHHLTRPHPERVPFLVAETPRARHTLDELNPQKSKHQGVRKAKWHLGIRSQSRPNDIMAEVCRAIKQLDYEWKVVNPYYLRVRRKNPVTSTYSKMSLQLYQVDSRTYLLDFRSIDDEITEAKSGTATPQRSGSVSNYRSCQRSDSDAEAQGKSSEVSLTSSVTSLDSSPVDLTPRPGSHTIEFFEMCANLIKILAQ", "sequence (Q9Y478 whole entry partner)": "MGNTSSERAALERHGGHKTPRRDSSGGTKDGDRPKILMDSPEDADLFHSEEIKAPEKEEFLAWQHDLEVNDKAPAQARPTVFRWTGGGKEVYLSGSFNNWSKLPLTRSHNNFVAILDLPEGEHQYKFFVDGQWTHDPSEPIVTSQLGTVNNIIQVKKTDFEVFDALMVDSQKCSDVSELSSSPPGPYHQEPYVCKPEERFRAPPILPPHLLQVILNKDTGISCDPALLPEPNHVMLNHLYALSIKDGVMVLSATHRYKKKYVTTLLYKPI", "sequence (P54619 whole entry partner)": "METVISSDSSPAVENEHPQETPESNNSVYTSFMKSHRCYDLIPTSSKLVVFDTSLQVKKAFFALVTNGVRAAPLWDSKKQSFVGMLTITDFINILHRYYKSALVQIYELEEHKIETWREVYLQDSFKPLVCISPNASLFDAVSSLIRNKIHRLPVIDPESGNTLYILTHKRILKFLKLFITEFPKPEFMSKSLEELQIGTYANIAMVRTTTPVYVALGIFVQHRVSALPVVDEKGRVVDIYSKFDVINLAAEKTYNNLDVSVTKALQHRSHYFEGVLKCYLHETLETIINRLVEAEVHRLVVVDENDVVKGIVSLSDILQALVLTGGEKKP", "test": "Kinase assay, ATP Km", "type": "biochemical"}, "TNIK": {"biological_target": "T2, TNIK (Homo sapiens, UniProt Q9UKE5)", "T2 construct": "purchased Carna Biosciences", "T2 sequence (Q9UKE5 whole entry)": "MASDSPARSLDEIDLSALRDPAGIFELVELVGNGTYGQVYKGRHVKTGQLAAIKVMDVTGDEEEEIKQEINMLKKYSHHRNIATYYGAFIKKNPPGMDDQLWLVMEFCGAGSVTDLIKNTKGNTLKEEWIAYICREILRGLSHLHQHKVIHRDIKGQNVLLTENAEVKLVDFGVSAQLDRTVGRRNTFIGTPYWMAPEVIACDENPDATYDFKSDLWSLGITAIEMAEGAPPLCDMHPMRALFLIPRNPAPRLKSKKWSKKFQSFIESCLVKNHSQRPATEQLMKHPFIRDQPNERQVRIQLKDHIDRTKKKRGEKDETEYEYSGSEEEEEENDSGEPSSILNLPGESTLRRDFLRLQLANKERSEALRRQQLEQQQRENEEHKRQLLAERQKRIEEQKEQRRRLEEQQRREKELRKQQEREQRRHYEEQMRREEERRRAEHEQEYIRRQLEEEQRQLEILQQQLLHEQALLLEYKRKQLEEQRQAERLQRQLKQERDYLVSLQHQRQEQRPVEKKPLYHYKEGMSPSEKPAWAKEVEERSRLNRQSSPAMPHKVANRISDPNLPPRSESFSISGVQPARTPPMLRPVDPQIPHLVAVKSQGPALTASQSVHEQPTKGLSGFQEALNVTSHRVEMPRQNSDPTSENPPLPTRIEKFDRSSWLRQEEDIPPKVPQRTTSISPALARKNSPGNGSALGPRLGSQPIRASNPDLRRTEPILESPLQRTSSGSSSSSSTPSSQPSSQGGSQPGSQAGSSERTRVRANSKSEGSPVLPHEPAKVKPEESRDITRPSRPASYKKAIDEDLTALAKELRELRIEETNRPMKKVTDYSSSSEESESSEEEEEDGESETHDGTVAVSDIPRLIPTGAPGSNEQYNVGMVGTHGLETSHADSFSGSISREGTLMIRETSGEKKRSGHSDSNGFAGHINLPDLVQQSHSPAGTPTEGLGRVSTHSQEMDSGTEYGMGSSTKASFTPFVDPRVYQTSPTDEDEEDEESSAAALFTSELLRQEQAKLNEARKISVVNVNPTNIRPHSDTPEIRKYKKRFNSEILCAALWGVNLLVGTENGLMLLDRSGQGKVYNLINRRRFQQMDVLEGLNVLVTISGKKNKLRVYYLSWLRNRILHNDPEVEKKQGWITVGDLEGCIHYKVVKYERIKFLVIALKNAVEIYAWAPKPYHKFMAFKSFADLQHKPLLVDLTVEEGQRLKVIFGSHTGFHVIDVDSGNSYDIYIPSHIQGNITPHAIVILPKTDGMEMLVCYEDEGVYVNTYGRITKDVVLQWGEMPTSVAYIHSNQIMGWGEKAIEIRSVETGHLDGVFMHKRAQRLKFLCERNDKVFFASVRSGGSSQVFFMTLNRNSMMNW", "test": "Kinase assay, ATP Km", "type": "biochemical"}, "[1]": {"test": "Body weight of U-118 MG xenograft mice", "type": "in vivo, mouse", "settings": "for Body Weight Change(%): individual animals; for Body Weight Change(%) (average / SD): N 5"}},
  "note": "Several values for one entry are separate records, joined by “and”; a condition that tells them apart may be missing. Equal entries are not always repeated. Where two headings read alike, the source gives them in different places.",
  "data": [
    {"molecule": "C[C@@H](N)COc1ccc(-c2cnc3ccc(N[C@H](C)c4cccc(F)c4)nn23)cc1.O=C(O)CCCCC(=O)O", "note": "[DS-6051b]", "values": [
      {"measurement": "inhibition at 0.04 µM", "setting": "TRKB (NTRK2)", "value": 101, "unit": "%"},
      {"measurement": "IC50", "setting": "TRKB (NTRK2)", "value": "a few nanomolar"},
      {"measurement": "IC50", "setting": "TRKB (NTRK2); read-out: IC50", "value": 2.28, "unit": "nM"},
      {"measurement": "inhibition at 0.04 µM", "setting": "AMPKα1/β1/γ1", "value": 5, "unit": "%"},
      {"measurement": "inhibition at 0.04 µM", "setting": "TNIK", "value": 16.4, "unit": "%"},
      {"measurement": "Body Weight Change(%)", "setting": "[1]; 25 mg/kg po, day 10", "value": 0.0, "unit": "%"},
      {"measurement": "Body Weight Change(%)", "setting": "[1]; 25 mg/kg po, day 11", "value": "-2.5% and -1.4% and -4.1% and -0.9% and 0.0%"},
      {"measurement": "Body Weight Change(%)", "setting": "[1]; 25 mg/kg po, day 12", "value": "-3.5% and 0.0% and -2.7% and -1.4% and 1.9%"},
      {"measurement": "Body Weight Change(%)", "setting": "[1]; 25 mg/kg po, day 13", "value": "-4.0% and -0.9% and -3.2% and 2.4%"},
      {"measurement": "Body Weight Change(%)", "setting": "[1]; 25 mg/kg po, day 14", "value": "-5.1% and -2.8% and -5.0% and -0.9% and 2.4%"},
      {"measurement": "Body Weight Change(%)", "setting": "[1]; 25 mg/kg po, day 15", "value": "-6.1% and -1.4% and -5.0% and 3.8%"},
      {"measurement": "Body Weight Change(%)", "setting": "[1]; 25 mg/kg po, day 16", "value": "-9.1% and -0.9% and -6.3% and -2.3% and 4.3%"},
      {"measurement": "Body Weight Change(%)", "setting": "[1]; 25 mg/kg po, day 17", "value": "-7.6% and 1.9% and -5.0% and -0.9% and 5.2%"},
      {"measurement": "Body Weight Change(%)", "setting": "[1]; 25 mg/kg po, day 18", "value": "-7.6% and 0.5% and -4.5% and -0.9% and 5.7%"},
      {"measurement": "Body Weight Change(%)", "setting": "[1]; 25 mg/kg po, day 19", "value": "-8.1% and 1.4% and -2.3% and -1.4% and 6.6%"},
      {"measurement": "Body Weight Change(%)", "setting": "[1]; 25 mg/kg po, day 20", "value": "-7.6% and 0.9% and -1.8% and -2.3% and 5.2%"},
      {"measurement": "Body Weight Change(%)", "setting": "[1]; 25 mg/kg po, day 21", "value": "-6.6% and 0.0% and -2.3% and -3.6% and 6.2%"},
      {"measurement": "Body Weight Change(%)", "setting": "[1]; 25 mg/kg po, day 22", "value": "-6.6% and 2.4% and -2.3% and -2.7% and 4.3%"},
      {"measurement": "Body Weight Change(%)", "setting": "[1]; 25 mg/kg po, day 23", "value": "-8.6% and 1.9% and -0.9% and 4.7%"},
      {"measurement": "Body Weight Change(%)", "setting": "[1]; 25 mg/kg po, day 24", "value": "-4.5% and 2.8% and -2.3% and 0.9% and 5.2%"},
      {"measurement": "Body Weight Change(%)", "setting": "[1]; 25 mg/kg po, day 25", "value": "-3.0% and 3.3% and -1.4% and 3.6% and 6.2%"},
      {"measurement": "Body Weight Change(%)", "setting": "[1]; 25 mg/kg po, day 26", "value": "-2.5% and 6.6% and -1.4% and 3.6% and 9.5%"},
      {"measurement": "Body Weight Change(%)", "setting": "[1]; 25 mg/kg po, day 27", "value": "-1.5% and 6.6% and -0.5% and 2.7% and 6.2%"},
      {"measurement": "Body Weight Change(%)", "setting": "[1]; 25 mg/kg po, day 28", "value": "-0.5% and 5.2% and -0.9% and 3.2% and 7.1%"},
      {"measurement": "Body Weight Change(%) (average / SD)", "setting": "[1]; 25 mg/kg, day 0", "value": 0.0, "unit": "%"},
      {"measurement": "Body Weight Change(%) (average / SD)", "setting": "[1]; 25 mg/kg, day 1", "value": -1.8, "unit": "%"},
      {"measurement": "Body Weight Change(%) (average / SD)", "setting": "[1]; 25 mg/kg, day 2", "value": -1.1, "unit": "%"},
      {"measurement": "Body Weight Change(%) (average / SD)", "setting": "[1]; 25 mg/kg, day 3", "value": -1.3, "unit": "%"},
      {"measurement": "Body Weight Change(%) (average / SD)", "setting": "[1]; 25 mg/kg, day 4", "value": -2.3, "unit": "%"},
      {"measurement": "Body Weight Change(%) (average / SD)", "setting": "[1]; 25 mg/kg, day 5", "value": -2.0, "unit": "%"},
      {"measurement": "Body Weight Change(%) (average / SD)", "setting": "[1]; 25 mg/kg, day 6", "value": -2.9, "unit": "%"},
      {"measurement": "Body Weight Change(%) (average / SD)", "setting": "[1]; 25 mg/kg, day 7", "value": -1.3, "unit": "%"},
      {"measurement": "Body Weight Change(%) (average / SD)", "setting": "[1]; 25 mg/kg, day 8", "value": -1.4, "unit": "%"},
      {"measurement": "Body Weight Change(%) (average / SD)", "setting": "[1]; 25 mg/kg, day 9", "value": -0.8, "unit": "%"},
      {"measurement": "Body Weight Change(%) (average / SD)", "setting": "[1]; 25 mg/kg, day 10", "value": -1.1, "unit": "%"},
      {"measurement": "Body Weight Change(%) (average / SD)", "setting": "[1]; 25 mg/kg, day 11", "value": -1.3, "unit": "%"},
      {"measurement": "Body Weight Change(%) (average / SD)", "setting": "[1]; 25 mg/kg, day 12", "value": -1.0, "unit": "%"},
      {"measurement": "Body Weight Change(%) (average / SD)", "setting": "[1]; 25 mg/kg, day 13", "value": -0.8, "unit": "%"},
      {"measurement": "Body Weight Change(%) (average / SD)", "setting": "[1]; 25 mg/kg, day 14", "value": 0.4, "unit": "%"},
      {"measurement": "Body Weight Change(%) (average / SD)", "setting": "[1]; 25 mg/kg, day 15", "value": 1.7, "unit": "%"},
      {"measurement": "Body Weight Change(%) (average / SD)", "setting": "[1]; 25 mg/kg, day 16", "value": 3.2, "unit": "%"},
      {"measurement": "Body Weight Change(%) (average / SD)", "setting": "[1]; 25 mg/kg, day 17", "value": 2.7, "unit": "%"},
      {"measurement": "Body Weight Change(%) (average / SD)", "setting": "[1]; 25 mg/kg, day 18", "value": 2.8, "unit": "%"},
      {"measurement": "Body Weight Change(%)", "setting": "[1]; 50 mg/kg po, day 10", "value": 0.0, "unit": "%"},
      {"measurement": "Body Weight Change(%)", "setting": "[1]; 50 mg/kg po, day 11", "value": 1.5, "unit": "%"},
      {"measurement": "Body Weight Change(%)", "setting": "[1]; 50 mg/kg po, day 19", "value": 1.5, "unit": "%"},
      {"measurement": "Body Weight Change(%)", "setting": "[1]; 50 mg/kg po, day 20", "value": 2.0, "unit": "%"},
      {"measurement": "Body Weight Change(%)", "setting": "[1]; 50 mg/kg po, day 21", "value": 2.0, "unit": "%"},
      {"measurement": "Body Weight Change(%)", "setting": "[1]; 50 mg/kg po, day 22", "value": 1.0, "unit": "%"},
      {"measurement": "Body Weight Change(%)", "setting": "[1]; 50 mg/kg po, day 23", "value": 2.0, "unit": "%"},
      {"measurement": "Body Weight Change(%)", "setting": "[1]; 50 mg/kg po, day 24", "value": 1.5, "unit": "%"},
      {"measurement": "Body Weight Change(%)", "setting": "[1]; 50 mg/kg po, day 25", "value": 0.0, "unit": "%"},
      {"measurement": "Body Weight Change(%)", "setting": "[1]; 50 mg/kg po, day 26", "value": 3.5, "unit": "%"},
      {"measurement": "Body Weight Change(%)", "setting": "[1]; 50 mg/kg po, day 27", "value": 3.5, "unit": "%"},
      {"measurement": "Body Weight Change(%)", "setting": "[1]; 50 mg/kg po, day 28", "value": 4.5, "unit": "%"},
      {"measurement": "Body Weight Change(%) (average / SD)", "setting": "[1]; 50 mg/kg, day 0", "value": 0.0, "unit": "%"},
      {"measurement": "Body Weight Change(%) (average / SD)", "setting": "[1]; 50 mg/kg, day 1", "value": 0.4, "unit": "%"},
      {"measurement": "Body Weight Change(%) (average / SD)", "setting": "[1]; 50 mg/kg, day 2", "value": 0.4, "unit": "%"},
      {"measurement": "Body Weight Change(%) (average / SD)", "setting": "[1]; 50 mg/kg, day 3", "value": 1.8, "unit": "%"},
      {"measurement": "Body Weight Change(%) (average / SD)", "setting": "[1]; 50 mg/kg, day 4", "value": 0.9, "unit": "%"},
      {"measurement": "Body Weight Change(%) (average / SD)", "setting": "[1]; 50 mg/kg, day 5", "value": 0.9, "unit": "%"},
      {"measurement": "Body Weight Change(%) (average / SD)", "setting": "[1]; 50 mg/kg, day 6", "value": 0.2, "unit": "%"},
      {"measurement": "Body Weight Change(%) (average / SD)", "setting": "[1]; 50 mg/kg, day 7", "value": 2.6, "unit": "%"},
      {"measurement": "Body Weight Change(%) (average / SD)", "setting": "[1]; 50 mg/kg, day 8", "value": 2.8, "unit": "%"},
      {"measurement": "Body Weight Change(%) (average / SD)", "setting": "[1]; 50 mg/kg, day 9", "value": 1.2, "unit": "%"},
      {"measurement": "Body Weight Change(%) (average / SD)", "setting": "[1]; 50 mg/kg, day 10", "value": 1.2, "unit": "%"},
      {"measurement": "Body Weight Change(%) (average / SD)", "setting": "[1]; 50 mg/kg, day 11", "value": 0.8, "unit": "%"}
    ]}
  ]
}
